We go through 13 compounds from patent US20240130994A1, “IONIC LIQUID FORMULATIONS FOR TREATING DIABETES” (i2O Therapeutics, Inc., priority 2020, published 2024).

For data set [1], the system named is non-diabetic male Wistar rats. Description: 30-day daily oral gavage safety study. How it is done: Adult non-diabetic male Wistar rats were dosed daily for 30 days via oral gavage with either 25 or 100 uL Choline-Cinnamic Acid 1:1.5. Two placebo groups received either 25 or 100 uL saline. Animals were observed daily for general health and weight recorded. On day 31, all animals were euthanized, and tissue, blood and plasma samples collected for analysis.

Data set [2] is described as follows: Physical form of choline-based ionic liquids at room temperature. In kind it is physicochemical. The procedure: Several ionic liquids comprising choline as a cation and various anions were synthesized. […] For anions not miscible with the aqueous choline bicarbonate solution, a co-solvent, such as ethanol, was added until a homogenous mixture formed. The mixture was stirred at room temperature until CO2 evolution ceased. Solvent was removed by rotary evaporation at 60° C. for 20 minutes, and each product was dried in a vacuum oven for 48 hours at 60° C.

The test system of data set [3] is non-diabetic male Wistar rats. The data set can be described thus: Blood glucose levels after intrajejunal injection in fasted non-diabetic rats. In kind it is in vivo, rat. The conditions noted are these: for effect on blood glucose levels: 100 μL. The procedure: About 250 μL of blood was collected at regular intervals in order to determine the blood glucose level. The obtained values, plotted as mean percent change±standard error in blood glucose levels with respect to initial reading (n=3) versus time, are shown in FIG. 7.
About 250 μL of blood was collected at regular intervals in order to determine the blood glucose level. The obtained values, plotted as mean percent change±standard error in blood glucose levels with respect to initial reading (n=3) versus time, are shown in FIG. 8.
The obtained values, plotted as mean percent change±standard error in blood glucose levels with respect to initial reading (n=4) versus time, are shown in FIG. 9.

Data set [4] has as its system Streptozotocin-induced diabetic male Wistar rats. The data set can be described thus: Plasma insulin after administration in rat model of Type 1 diabetes. The conditions noted are these: subcutaneous injection, oral liquid gavage or jejunum catheter. Format: in vivo. How it is done: A fasting control group was not treated. About 250 μL of blood was collected at regular intervals in order to determine the insulin serum concentration.

In data set [5] the test system is Streptozocin-induced diabetic male Wistar rats. The data set can be described thus: Blood glucose levels after oral liquid gavage in rat model of Type 1 diabetes. The conditions noted are these: Type 1 diabetes model rats. Format: in vivo. The procedure:
About 250 μL of blood was collected at regular intervals in order to determine the blood glucose level. The obtained values, plotted as mean percent change±standard error in blood glucose levels with respect to initial reading (n=4) versus time, are shown in FIG. 11.

Data set [6] has as its system non-diabetic male Wistar rats. The data set can be described thus: Glucose excretion in urine after intrajejunal injection. The conditions noted are these: intrajejunal injection at varying doses, urine from bladder 1.5 hours post-injection. Format: in vivo, rat. The procedure:
At 1.5 hours post-injection, urine was sampled from the bladder to determine glucose concentration. The obtained glucose concentration values, plotted as percent change in blood glucose levels with respect to initial reading versus dose level and change in glucose concentration in the urine collected from the bladder versus dose level (n=1), are shown in FIG. 13.

Data set [7] has as its system non-diabetic male Wistar rats. Description: Blood glucose levels after subcutaneous injection or liquid gavage in fasted non-diabetic rats. Format: in vivo, rat. How it is done:
A fasting control group was dosed orally with a saline solution. About 250 μL of blood was collected at regular intervals in order to determine the blood glucose level. The obtained values, plotted as mean percent change±standard error in blood glucose levels with respect to initial reading (n=4) versus time, are shown in FIG. 10. […] About 250 μL of blood was collected at regular intervals in order to determine the blood glucose level. The obtained values, plotted as mean percent change±standard error in blood glucose levels with respect to initial reading (n=4) versus time, are shown in FIG. 11.

The conditions of data set [8]: male, Wistar, rat, in vivo.
Experimental: (§1) Adult non-diabetic male Wistar rats were fasted overnight but given free access to water and subsequently dosed via intrajejunal injection with liraglutide and choline-hydrocinnamic acid. A fasting control group was dosed with a saline solution via intrajejunal injection. About 250 L of blood was collected at hourly intervals in order to determine the liraglutide serum concentration.
(§2) Adult non-diabetic male Wistar rats were fasted overnight but given free access to water and subsequently dosed via intrajejunal injection with liraglutide and one of various choline-based ionic liquids.
The conditions of data set [9]: in the presence of well-known permeation enhancers; cited from earlier work.
Data set [10] can be described thus: Liraglutide serum concentration after intrajejunal injection of liraglutide with choline-based ionic liquid. The conditions noted are these: for Peak 5-Hour Liraglutide Concentration: non-diabetic rats.
Experimental: as §1, §2
[11] abbreviates: cation:anion 1:1, room temperature.
Setting [12] is: cation:anion 1:2, room temperature.
Where [13] appears, read: cation:anion 2:1, room temperature.

Entries after “also recorded” stand apart in the source; their conditions may differ. Read-outs that look alike come from different tables or passages of the source.

`O=C(O)C=Cc1ccccc1` [Cinnamic Acid]: in [1] (25 or 100 uL daily oral gavage for 30 days, rats), the “plasma indicators of organ toxicity vs placebo” value was “not statistically significantly different”. Moreover, in data set [1] (rat, in vivo, po), the “IHC staining of tight junction proteins Claudin-1 and Occludin of GI tract tissues vs placebo” value is listed as “no difference”; the “blood cell counts vs placebo” value is listed as “not statistically significantly different”; the “histological examination (H&E) of organs and GI tract tissues vs saline placebo” value is reported as “no significant difference”. Besides, the “Physical Form (Ratios Listed as Cation:Anion)” value in data set [2] (setting [11]) is reported as “Liquid at 1:1, 1:1.5, 1:2”. Also, the “Physical Form (Ratios Listed as Cation:Anion)” value in [2] (cation:anion 1:1.5, room temperature) is listed as “Liquid at 1:1, 1:1.5, 1:2”. Also, the “Physical Form (Ratios Listed as Cation:Anion)” value in [2] (setting [12]) is listed as “Liquid at 1:1, 1:1.5, 1:2”. Also, the “appearance and physical form” value in data set [2] (room temperature, ratio as in label) was “viscous yellow liquids”.
Take `CC(C)=CCCC(C)CC(=O)O` (centres unmarked) [Citronellic Acid]: in data set [3] (10, 20, 50 and 100 μL), the “effect on blood glucose level” value is “dropped in a dose-dependent manner”. The “blood glucose levels, % of starting levels” value in [3] (50 μL dose) is reported as “about 50%”. The “effect on blood glucose levels” value was “pronounced decrease in blood glucose levels” in data set [3]; “continued to drop” in data set [5]; “reduced blood glucose levels; also recorded: dropped and recovered slowly with time” in [7] (oral liquid gavage, listed as choline-citronellic acid); “reduced blood glucose levels” in data set [7] (subcutaneous injection). The “drop in blood glucose level from baseline” value in data set [3] (100 μL dose) is “about 70%”. Besides, the “insulin secretion (plasma insulin concentration)” value in data set [4] was “Stimulation of insulin secretion was observed”. The “Physical Form (Ratios Listed as Cation:Anion)” value in data set [2] (setting [11]) is listed as “Liquid at 2:1, 1:1, 1:2”; in data set [2] (setting [12]), “Liquid at 2:1, 1:1, 1:2”; in data set [2] (setting [13]), “Liquid at 2:1, 1:1, 1:2”. The “glucose concentration in the urine” value in data set [6] is “increasing glucose concentration in the urine”.
Consider `CCCCC/C=C\C/C=C\CCCCCCCC(=O)O` [Linoleic Acid], for which the “Peak 5-Hour Liraglutide Concentration” value in [8] came out at 44 ng/mL. Besides, the “fold improvement of liraglutide concentration over choline-citronellic acid” value in data set [8] is on record as “about 10 fold”. Further, the “Physical Form (Ratios Listed as Cation:Anion)” value is listed as “Solid” in data set [2] (setting [11]) and “Liquid” in data set [2] (setting [12]).
With `CCCCCCCC(=O)O` [Octanoic Acid], the “effect on blood glucose levels” value in data set [3] is given as “neither choline-octanoic acid nor choline-octenoic acid decreased blood glucose levels”. Also, the “Physical Form (Ratios Listed as Cation:Anion)” value in data set [2] (setting [11]) is recorded as “Liquid”; in [2] (setting [12]), “Solid”.
Regarding `CCCCCCCCCCC(=O)O` [Undecanoic Acid], in data set [2] (setting [11]), the “Physical Form (Ratios Listed as Cation:Anion)” value is “Solid at 1:1”.
Same read-out and setting: with `COc1cc(C(=O)O)ccc1O` [Vanillic Acid] the entry was “Solid at 1:1”.
As to `CC(C)=CCCC(C)CC(=O)O` (centres unmarked) [citronellic acid alone, citronellic acid, reference compound], the “blood glucose levels, % of starting levels” value in data set [3] (38 μL dose (acid content of 50 μL ionic liquid)) is recorded as “about 30%”.
Consider `CCCCCCCCCCCCCCCC(=O)N[C@@H](CCC(=O)NCCCC[C@H](NC(=O)[C@H](C)NC(=O)[C@H](C)NC(=O)[C@H](CCC(N)=O)NC(=O)CNC(=O)[C@H](CCC(=O)O)NC(=O)[C@H](CC(C)C)NC(=O)[C@H](Cc1ccc(O)cc1)NC(=O)[C@H](CO)NC(=O)[C@H](CO)NC(=O)[C@@H](NC(=O)[C@H](CC(=O)O)NC(=O)[C@H](CO)NC(=O)[C@@H](NC(=O)[C@H](Cc1ccccc1)NC(=O)[C@@H](NC(=O)CNC(=O)[C@H](CCC(=O)O)NC(=O)[C@H](C)NC(=O)[C@@H](N)Cc1cnc[nH]1)[C@@H](C)O)[C@@H](C)O)C(C)C)C(=O)N[C@@H](CCC(=O)O)C(=O)N[C@@H](Cc1ccccc1)C(=O)N[C@H](C(=O)N[C@@H](C)C(=O)N[C@@H](Cc1c[nH]c2ccccc12)C(=O)N[C@@H](CC(C)C)C(=O)N[C@H](C(=O)N[C@@H](CCCNC(=N)N)C(=O)NCC(=O)N[C@@H](CCCNC(=N)N)C(=O)NCC(=O)O)C(C)C)[C@@H](C)CC)C(=O)O` [liraglutide], for which the absorption of liraglutide result in data set [9] was “only minute absorption”.
For the compound `Cc1ccc(S(=O)(=O)O)cc1` [p-Toluenesulfonic Acid], the “Physical Form (Ratios Listed as Cation:Anion)” value in [2] (setting [11]) was “Solid”; in [2] (setting [12]), “Liquid”.
On to `O=C(O)CCC(=O)C(=O)O` [α-Ketoglutaric Acid], for which the “Physical Form (Ratios Listed as Cation:Anion)” value in data set [2] (setting [13]) is “Liquid at 2:1”.
As for Choline-Octenoic acid, the “effect on blood glucose levels” value in data set [3] is “neither choline-octanoic acid nor choline-octenoic acid decreased blood glucose levels”. Besides, the “Peak 5-Hour Liraglutide Concentration” value in [10] (liraglutide with the ionic liquid, intrajejunal injection) amounted to 201 ng/mL.
Consider Dihydrobenzoic Acid, for which the “Physical Form (Ratios Listed as Cation:Anion)” value in [2] (setting [11]) is given as “Solid at 1:1”.
As for “Hydrocinnamic Acid (3-Phenylpropionic Acid)”, the “Physical Form (Ratios Listed as Cation:Anion)” value in data set [2] (setting [11]) is given as “Liquid at 1:1, 1:2”; in data set [2] (setting [12]), “Liquid at 1:1, 1:2”. In data set [10] (liraglutide with choline-hydrocinnamic acid vs Buckley et al.), the “blood concentration of liraglutide relative to those reported in the literature” value is “approximately 4,400 fold”. Besides, in data set [10] (liraglutide with choline-hydrocinnamic acid, intrajejunal injection, rats), the “liraglutide serum concentration” value was “surprisingly high serum concentration”. The “Peak 5-Hour Liraglutide Concentration” value is 2086 ng/mL in data set [10] (liraglutide with the ionic liquid, intrajejunal injection, listed as Choline-Hydrocinnamic acid) and “greater than 2000 ng/mL” in data set [10] (liraglutide with the ionic liquid, intrajejunal injection, listed as choline-hydrocinnamic acid). In addition, in [10] (liraglutide with the ionic liquid, intrajejunal injection, rats), the “fold improvement of liraglutide concentration over choline-citronellic acid” value is recorded as 500 fold.
